The values below come from patent publication US20250289804A1, “SUBSTITUTED INDOLE COMPOUNDS AND METHODS OF USE THEREOF” (NOVARTIS PHARMA AG, priority 2021, published 2025).

In one test the target is human C3bBb (Homo sapiens (Human), UniProt P00751). Nature of the test: Human C3bBb enzyme assay (C3a generation from C3, ELISA). It counts as biochemical. The method, boiled down:
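C3bBb was preformed from human C3b, CFB and CFD at 1 μM each (30 min, RT) in PBS pH 7.4 with 100 μM NiCl2 and 0.05% CHAPS. Then 3 nM complex with 1 μM human C3 was incubated with compound for 1 h at RT. C3a was quantified by ELISA against a standard curve, and IC50 came from a 10-point 4-parameter fit.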
In general terms: ELISA stands for enzyme-linked immunosorbent assay.

Test [1] deals with MAC formation in normal human serum. Nature of the test: Human serum MAC formation assay (zymosan-coated plates, 50% normal human serum). The following applies: 50% normal human serum with EGTA, 37° C. 30 minutes. In short, it runs like this:
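Compounds preincubated 15 min at RT with 50% normal human serum in gelatin buffer plus 20 mM EGTA, then complement activated 30 min at 37 °C on zymosan-coated plates. C9 neoepitope ELISA, fluorogenic readout. Percent inhibition vs EDTA-serum baseline and EGTA-serum maximum; IC50 from 4-parameter fit of 10-point curves.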

[2] abbreviates: starred values: assay conducted with 1 nM C3b:Bb enzyme, read-out: Human C3b:Bb IC50 Avg.
The mark [3] stands for this setting: 3 nM C3bBb complex, 1 μM human C3, 1 hour room temperature, read-out: Human C3b:Bb IC50 Avg.

What is called IC50 is the concentration at which inhibition is half-maximal.

Where two headings read alike, the source gives them in different places.

human C3bBb, sequence (P00751 260-764): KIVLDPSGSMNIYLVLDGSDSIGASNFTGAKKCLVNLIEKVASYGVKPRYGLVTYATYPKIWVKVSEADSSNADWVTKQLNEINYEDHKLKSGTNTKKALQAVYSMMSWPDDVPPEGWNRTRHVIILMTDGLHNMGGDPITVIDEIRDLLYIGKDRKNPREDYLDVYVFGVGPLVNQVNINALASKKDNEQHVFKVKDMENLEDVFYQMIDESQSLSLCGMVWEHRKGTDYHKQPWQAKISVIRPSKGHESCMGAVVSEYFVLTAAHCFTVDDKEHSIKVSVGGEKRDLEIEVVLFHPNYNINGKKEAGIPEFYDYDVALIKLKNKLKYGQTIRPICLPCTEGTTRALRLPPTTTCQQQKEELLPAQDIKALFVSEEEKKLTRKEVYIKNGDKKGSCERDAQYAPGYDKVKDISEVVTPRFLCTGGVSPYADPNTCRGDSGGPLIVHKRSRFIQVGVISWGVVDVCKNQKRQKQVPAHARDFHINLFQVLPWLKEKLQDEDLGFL
human C3bBb, sequence (P01024 23-667 partner): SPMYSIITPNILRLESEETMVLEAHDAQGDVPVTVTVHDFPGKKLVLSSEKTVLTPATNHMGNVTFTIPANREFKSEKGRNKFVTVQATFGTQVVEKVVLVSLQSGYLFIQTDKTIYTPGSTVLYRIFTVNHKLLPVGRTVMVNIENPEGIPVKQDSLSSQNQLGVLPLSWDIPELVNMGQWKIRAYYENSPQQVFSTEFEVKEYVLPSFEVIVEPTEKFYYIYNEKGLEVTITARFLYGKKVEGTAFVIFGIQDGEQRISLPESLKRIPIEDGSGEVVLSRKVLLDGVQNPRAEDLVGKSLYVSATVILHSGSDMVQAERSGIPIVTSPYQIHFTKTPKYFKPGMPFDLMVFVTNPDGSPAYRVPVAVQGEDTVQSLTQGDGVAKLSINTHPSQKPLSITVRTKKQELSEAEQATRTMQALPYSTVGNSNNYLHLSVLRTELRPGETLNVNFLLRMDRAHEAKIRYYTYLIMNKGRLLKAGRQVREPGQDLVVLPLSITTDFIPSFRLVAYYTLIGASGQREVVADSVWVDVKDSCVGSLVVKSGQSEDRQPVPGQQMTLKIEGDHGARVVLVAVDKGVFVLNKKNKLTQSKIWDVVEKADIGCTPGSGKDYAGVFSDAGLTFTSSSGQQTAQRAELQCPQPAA
human C3bBb, sequence (P01024 749-1663 partner): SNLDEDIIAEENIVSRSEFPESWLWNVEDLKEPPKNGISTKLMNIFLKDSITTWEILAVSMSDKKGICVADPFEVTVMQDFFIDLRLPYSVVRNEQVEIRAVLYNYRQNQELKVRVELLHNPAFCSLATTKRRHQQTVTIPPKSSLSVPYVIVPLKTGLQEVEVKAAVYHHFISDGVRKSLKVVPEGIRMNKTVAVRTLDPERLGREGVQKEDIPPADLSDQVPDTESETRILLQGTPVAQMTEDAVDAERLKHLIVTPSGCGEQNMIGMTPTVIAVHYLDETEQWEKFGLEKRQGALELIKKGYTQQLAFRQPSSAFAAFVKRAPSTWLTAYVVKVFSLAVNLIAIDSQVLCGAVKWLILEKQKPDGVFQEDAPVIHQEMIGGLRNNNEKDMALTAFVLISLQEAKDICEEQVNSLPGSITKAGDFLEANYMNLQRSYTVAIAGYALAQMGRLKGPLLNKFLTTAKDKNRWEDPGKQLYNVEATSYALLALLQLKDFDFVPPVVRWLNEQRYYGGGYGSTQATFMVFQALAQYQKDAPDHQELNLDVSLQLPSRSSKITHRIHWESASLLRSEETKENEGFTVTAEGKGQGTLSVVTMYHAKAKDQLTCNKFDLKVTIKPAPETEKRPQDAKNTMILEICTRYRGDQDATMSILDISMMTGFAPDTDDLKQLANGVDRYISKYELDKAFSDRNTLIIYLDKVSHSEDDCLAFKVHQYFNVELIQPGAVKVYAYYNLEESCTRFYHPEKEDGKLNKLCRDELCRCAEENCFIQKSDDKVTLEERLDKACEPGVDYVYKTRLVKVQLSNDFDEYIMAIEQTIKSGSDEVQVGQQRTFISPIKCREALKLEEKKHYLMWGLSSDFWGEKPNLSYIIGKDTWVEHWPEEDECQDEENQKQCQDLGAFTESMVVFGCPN

In the case of `COc1cc(C)c2[nH]ccc2c1CN1CC[C@@]2(CCOC2)C[C@H]1c1ccc(C(=O)O)cc1` (single isomer, unassigned) [Example 34, 4-((5S,7S)-8-((5-methoxy-7-methyl-1H-indol-4-yl)methyl)-2-oxa-8-azaspiro[4.5]decan-7-yl)benzoic acid or 4-((5R,7S)-8-((5-methoxy-7-methyl-1H-indol-4-yl)methyl)-2-oxa-8-azaspiro[4.5]decan-7-yl)benzoic acid], the IC50 at human C3bBb (setting [2]) is less than 10 nM; in test [1], 100 to 200 nM.
The matching figures for `Cc1cc(C2CC2)c(CN2CC[C@H](N3CC(C(F)(F)F)C3)C[C@H]2c2ccc(C(=O)O)cc2)c2cc[nH]c12` [Example 76, 4-((2S,4S)-1-((5-cyclopropyl-7-methyl-1H-indol-4-yl)methyl)-4-(3-(trifluoromethyl)azetidin-1-yl)piperidin-2-yl)benzoic acid]: less than 10 nM and 100 to 200 nM.
The matching figures for `COc1cc(C)c2[nH]ccc2c1CN1CC[C@H](N2CC(C(F)F)C2)C[C@H]1c1ccc(C(=O)O)cc1` [Example 74, 4-((2S,4S)-4-(3-(difluoromethyl)azetidin-1-yl)-1-((5-methoxy-7-methyl-1H-indol-4-yl)methyl)piperidin-2-yl)benzoic acid]: less than 10 nM and 100 to 200 nM.
For the compound `COc1cc(C)c2[nH]cc(Cl)c2c1CN1CC[C@H](N2CC(C(F)(F)F)C2)C[C@H]1c1ccc(C(=O)O)cc1` [Example 75, 4-((2S,4S)-1-((3-chloro-5-methoxy-7-methyl-1H-indol-4-yl)methyl)-4-(3-(trifluoromethyl)azetidin-1-yl)piperidin-2-yl)benzoic acid], the values for the IC50 (at human C3bBb (setting [2]); in test [1]) were 10 to 25 nM and 200 to 300 nM, respectively.
The corresponding values for `COc1cc(C)c2[nH]ccc2c1CN1CC[C@]2(C[C@H]1c1ccc(C(=O)O)cc1)C[C@@H](F)C2` [Example 61, 4-((2S,4r,6S)-2-fluoro-7-((5-methoxy-7-methyl-1H-indol-4-yl)methyl)-7-azaspiro[3.5]nonan-6-yl)benzoic acid and 4-((2R,4s,6S)-2-fluoro-7-((5-methoxy-7-methyl-1H-indol-4-yl)methyl)-7-azaspiro[3.5]nonan-6-yl)benzoic acid] are less than 10 nM and less than 100 nM.
Regarding `COc1cc(C)c2[nH]ccc2c1CN1CC[C@H](N2CCCC2=O)C[C@H]1c1ccc(C(=O)O)cc1` (racemic) [Example 12, (±)-trans-4-(1-((5-methoxy-7-methyl-1H-indol-4-yl)methyl)-4-(2-oxopyrrolidin-1-yl)piperidin-2-yl)benzoic acid], the IC50 was more than 100 nM against human C3bBb (Human C3b:Bb IC50 Avg (nM), 3 nM C3bBb complex, 1 μM human C3, 1 hour room temperature) and 300 to 500 nM in test [1].
`COc1cc(C)c2[nH]ccc2c1CN1CC[C@]2(C[C@H]1c1ccc(C(=O)O)cc1)C[C@@H](F)C2` (single isomer, unassigned) [Example 62, 4-((2R,4s,6S)-2-fluoro-7-((5-methoxy-7-methyl-1H-indol-4-yl)methyl)-7-azaspiro[3.5]nonan-6-yl)benzoic acid or 4-((2S,4r,6S)-2-fluoro-7-((5-methoxy-7-methyl-1H-indol-4-yl)methyl)-7-azaspiro[3.5]nonan-6-yl)benzoic acid]: the IC50 was less than 10 nM on human C3bBb (setting [2]) and less than 100 nM in test [1].
The corresponding values for `COc1cc(C)c2[nH]ccc2c1CN1CCC2(C[C@H]1c1ccc(C(=O)O)cc1)CC1(CC1)C2` [Example 51, (S)-4-(8-((5-methoxy-7-methyl-1H-indol-4-yl)methyl)-8-azadispiro[2.1.5^5.1^3]undecan-7-yl)benzoic acid] are less than 10 nM and less than 100 nM.
The matching figures for `COc1cc(C)c2[nH]ccc2c1CN1CC[C@H](CCC(F)(F)F)C[C@H]1c1ccc(C(=O)O)cc1` [Example 42, 4-((2S,4S)-1-((5-methoxy-7-methyl-1H-indol-4-yl)methyl)-4-(3,3,3-trifluoropropyl)piperidin-2-yl)benzoic acid]: less than 10 nM and 200 to 300 nM.
The corresponding values for `COc1cc(C)c2[nH]ccc2c1CN1CC[C@]2(C[C@H]1c1ccc(C(=O)O)cc1)C[C@@H](C(F)F)C2` (single isomer, unassigned) [Example 47, 4-((2R,4s,6S)-2-(difluoromethyl)-7-((5-methoxy-7-methyl-1H-indol-4-yl)methyl)-7-azaspiro[3.5]nonan-6-yl)benzoic acid or 4-((2S,4r,6S)-2-(difluoromethyl)-7-((5-methoxy-7-methyl-1H-indol-4-yl)methyl)-7-azaspiro[3.5]nonan-6-yl)benzoic acid] are less than 10 nM and less than 100 nM.
Regarding `COc1cc(C)c2[nH]ccc2c1CN1CC[C@H](N2CC(C(F)(F)F)C2)C[C@H]1c1ccc(C(=O)O)cc1` (racemic) [Example 71, (±)-trans-4-1-((5-methoxy-7-methyl-1H-indol-4-yl)methyl)-4-(3-(trifluoromethyl)azetidin-1-yl)piperidin-2-yl)benzoic acid], the concentration for half-maximal inhibition (IC50) was less than 10 nM at human C3bBb (setting [2]) and 300 to 500 nM in test [1].
The corresponding values for `COc1cc(C)c2[nH]ccc2c1CN1CC[C@H](NCC2CC2)C[C@H]1c1ccc(C(=O)O)cc1` [Example 26, 4-((2S,4S)-4-((cyclopropylmethyl)amino)-1-((5-methoxy-7-methyl-1H-indol-4-yl)methyl)piperidin-2-yl)benzoic acid] are 50 to 100 nM and 100 to 200 nM.
The matching figures for `COc1cc(C)c2[nH]ccc2c1CN1CC[C@]2(C[C@H]1c1ccc(C(=O)O)cc1)C[C@@H](C#N)C2` (single isomer, unassigned) [Example 52, 4-((2R,4s,6S)-2-cyano-7-((5-methoxy-7-methyl-1H-indol-4-yl)methyl)-7-azaspiro[3.5]nonan-6-yl)benzoic acid or 4-((2S,4r,6S)-2-cyano-7-((5-methoxy-7-methyl-1H-indol-4-yl)methyl)-7-azaspiro[3.5]nonan-6-yl)benzoic acid]: less than 10 nM and less than 100 nM.
The matching figures for `COc1cc(C)c2[nH]ccc2c1CN1CC[C@H](OC(F)F)C[C@H]1c1ccc(C(=O)O)cc1` [Example 28, 4-((2S,4S)-4-(difluoromethoxy)-1-((5-methoxy-7-methyl-1H-indol-4-yl)methyl)piperidin-2-yl)benzoic acid]: less than 10 nM and 100 to 200 nM.
As to `COc1cc(C)c2[nH]ccc2c1CN1CC[C@]2(C[C@H]1c1ccc(C(=O)O)cc1)C[C@@H](C#N)C2` (single isomer, unassigned) [Example 55, 4-((2R,4s,6S)-2-cyano-7-((5-methoxy-7-methyl-1H-indol-4-yl)methyl)-7-azaspiro[3.5]nonan-6-yl)benzoic acid or 4-((2S,4r,6S)-2-cyano-7-((5-methoxy-7-methyl-1H-indol-4-yl)methyl)-7-azaspiro[3.5]nonan-6-yl)benzoic acid], the IC50 at human C3bBb (setting [2]) was less than 10 nM; in test [1], less than 100 nM.
On to `COc1cc(C)c2[nH]ccc2c1CN1CC[C@@H](OC(F)F)C[C@@H]1c1ccc(C(=O)O)cc1` [Example 29, 4-((2R,4R)-4-(difluoromethoxy)-1-((5-methoxy-7-methyl-1H-indol-4-yl)methyl)piperidin-2-yl)benzoic acid], for which the IC50 is more than 100 nM on human C3bBb (setting [3]) and more than 500 nM in test [1].
On to `COc1cc(C)c2[nH]ccc2c1CN1CC[C@]2(CCC(F)(F)C2)C[C@H]1c1ccc(C(=O)O)cc1` (single isomer, unassigned) [Example 35, 4-(5R,7S)-(2,2-difluoro-8-((5-methoxy-7-methyl-1H-indol-4-yl)methyl)-8-azaspiro[4.5]decan-7-yl)benzoic acid or 4-(5S,7S)-(2,2-difluoro-8-((5-methoxy-7-methyl-1H-indol-4-yl)methyl)-8-azaspiro[4.5]decan-7-yl)benzoic acid], for which the IC50 at human C3bBb (setting [2]) is less than 10 nM; in test [1] it was less than 100 nM.
As for `COc1cc(C)c2[nH]ccc2c1CN1CC[C@H](n2cc(C(F)(F)F)cn2)C[C@H]1c1ccc(C(=O)O)cc1` [Example 4, 4-((2S,4S)-1-((5-methoxy-7-methyl-1H-indol-4-yl)methyl)-4-(4-(trifluoromethyl)-1H-pyrazol-1-yl)piperidin-2-yl)benzoic acid], the values for the IC50 (on human C3bBb (setting [3]); in test [1]) were less than 10 nM and 200 to 300 nM, respectively.
For the compound `Cc1cc(C2CC2)c(CN2CC[C@H](NC3CC(F)(F)C3)C[C@H]2c2ccc(C(=O)O)cc2)c2cc[nH]c12` [Example 25, 4-((2S,4S)-1-((5-cyclopropyl-7-methyl-1H-indol-4-yl)methyl)-4-((3,3-difluorocyclobutyl)amino)piperidin-2-yl)benzoic acid], the figures for the IC50 (at human C3bBb (setting [2]); in test [1]) were less than 10 nM and less than 100 nM, respectively.
Take `COc1cc(C)c2[nH]ccc2c1CN1CC[C@H](NC2COC2)C[C@H]1c1ccc(C(=O)O)cc1` (racemic) [Example 17, (+)-trans-4-(1-((5-methoxy-7-methyl-1H-indol-4-yl)methyl)-4-(oxetan-3-ylamino)piperidin-2-yl)benzoic acid]: the IC50 lay within 10 to 25 nM on human C3bBb (setting [3]) and 100 to 200 nM in test [1].
Take `COc1cc(C)c2[nH]ccc2c1CN1CC[C@H](OCC(F)F)C[C@H]1c1ccc(C(=O)O)cc1` [Example 83, 4-((2S,4S)-4-(2,2-difluoroethoxy)-1-((5-methoxy-7-methyl-1H-indol-4-yl)methyl)piperidin-2-yl)benzoic acid]: the results for the IC50 (on human C3bBb (setting [2]); in test [1]) were less than 10 nM and 100 to 200 nM, respectively.
